In patent US10919877B2, “Multifunctional inhibitors of MEK/PI3K and mTOR/MEK/PI3K biological pathways and therapeutic methods using the same” (THE REGENTS OF THE UNIVERSITY OF MICHIGAN, priority 2016, dated 2021):
Entries after “also recorded” stand apart in the source; their conditions may differ. Where two headings read alike, the source gives them in different places.

Legend:
PI3Kα = target: T1, PI3Kα (Homo sapiens, UniProt P42336); test: PI3K subtype enzyme inhibition; assay type: biochemical
T1 construct: purchased Life Technologies (assay run by the vendor)

PI3Kβ = target: T2, PI3Kβ (Homo sapiens, UniProt P42338); test: PI3K subtype enzyme inhibition; assay type: biochemical
T2 construct: purchased Life Technologies (assay run by the vendor)

PI3Kγ [1] = target: T3, PI3Kγ (Homo sapiens, UniProt P48736); test: PI3K subtype enzyme inhibition; assay type: biochemical
T3 construct: purchased Life Technologies (assay run by the vendor)

PI3Kδ = target: T4, PI3Kδ (Homo sapiens, UniProt O00329); test: PI3K subtype enzyme inhibition; assay type: biochemical
T4 construct: purchased Life Technologies (assay run by the vendor)

[2] = test system: A375 (melanoma), D54 (glioma), CT26 colorectal cancer, A2058 (melanoma) cell lines; test: Concurrent inhibition in tumor cell lines (multifunctional inhibitors); assay type: cell-based
From the text: The synthesis of another series of single entity, multifunctional inhibitors achieved by covalent linking of structural analogs of a PI3K inhibitor mTOR inhibitor, and an MEK inhibitor is also disclosed.

MEK1 and PI3K activities [3] = test: In vivo MEK1 and PI3K inhibition in intracerebral D54 glioma bearing mice (Western blot); settings: intracerebral D54, 400 mg/kg oral gavage, 2 hours
Description: Mice bearing i.c. D54 tumors were treated with either vehicle or 400 mg/kg of ST-162 or ST-168 by oral gavage at 2 hours prior to sacrifice.

MEK1 and PI3K activities [4] = test: In vivo MEK1 and PI3K inhibition in subcutaneous melanoma tumors A357 and A2058 (Western blot); design: species or system mice; settings: s.q. melanoma A357 and A2058, 400 mg/kg oral gavage, 2 hours
Description: Mice bearing s.q. melanoma tumors were treated with either vehicle or 400 mg/kg of ST-162 or ST-168 by oral gavage at 2 hours prior to sacrifice.

MEK1 and PI3K activities [5] = test: In vivo MEK1 and PI3K inhibition in subcutaneous colon tumor CT26 (Western blot); design: species or system mice; settings: subcutaneous CT26, 400 mg/kg oral gavage, 2 hours
Description: Mice bearing subcutaneous colon tumors were treated with either vehicle or 400 mg/kg of ST-162 or ST-168 by oral gavage at 2 hours prior to sacrifice. The known MEK inhibitor 901 and PI3K inhibitors were also evaluated in this study.

mTOR/MEK1/PI3K = test: In vivo inhibition in A375 flank tumor (Western blot); design: species or system mouse; settings: oral, 2 hour postadministration
From the text: (§1) The synthesis of another series of single entity, multifunctional inhibitors achieved by covalent linking of structural analogs of a PI3K inhibitor mTOR inhibitor, and an MEK inhibitor is also disclosed. […] […].

A375 melanoma tumor = test: In vivo efficacy in A375 melanoma tumor bearing mice
From the text: as §1

[6] = test system: pErk1/2 in A549 and D54 cells; test: Cellular MEK1 inhibition, Western blot of pErk1/2 in cultured tumor cells; assay type: cell-based, human; settings: A549 and D54 cell lines, 1 hour
Description: Western Blot Analysis. […] Cells were washed with phosphatebuffered saline (PBS) and lysed with NP-40 lysis buffer (1% NP40, 150 mM NaCl, and 25 mM Tris, pH 8.0) supplemented with protease inhibitors (Complete protease inhibitor cocktail, Roche, Basel, Switzerland) and phosphatase inhibitors (PhosSTOP, Roche, Basel, Switzerland). […] Proteins were transferred to 0.2 μm nitrocellulose membranes (Invitrogen, CA). Membranes were incubated overnight at 4° C. with primary antibodies after blocking, followed by incubation with appropriate horseradish peroxidase (HRP) conjugated secondary antibody at room temperature for 1 hour. ECL-Plus was used to detect the activity of peroxidase according to the manufacturer's protocol (Amersham Pharmacia, Uppsala, Sweden).

[7] = test system: pAkt in A549 and D54 cells; test: Cellular PI3K inhibition, Western blot of pAkt in cultured tumor cells; assay type: cell-based, human; settings: 1 hour; for PI3K inhibition in cells: A549 and D54 cell lines, Western blot; for PI3K activity indicated by level of pAKT: cultured A549 cells, Western blot vs DMSO
Description: The in vitro MEK1 and PI3K inhibitory activity of these series of compounds was also assessed in cultured tumor cells (D54, A549). Cellular efficacy of MEK1 and PI3K inhibition by inhibitor compounds was measured by changes in phosphorylation of pErk1/2 and pAkt, respectively. […] Cells were incubated in the presence of indicated compounds for 1 hour and lysates probed with specific antibodies against pAKT and pERK 1/2 and compared with vehicle control (DMSO). A549 (FIG. 2A) and D54 (FIG. 2B) cells were treated with inhibitors at the indicated concentrations for 1 hour and subjected to Western blot analysis.
Western Blot Analysis. Cells were seeded in six-well dishes 24 hours prior to treatment and incubated with the respective inhibitor compound solutions for 1 h. Cells were washed with phosphatebuffered saline (PBS) and lysed with NP-40 lysis buffer (1% NP40, 150 mM NaCl, and 25 mM Tris, pH 8.0) supplemented with protease inhibitors (Complete protease inhibitor cocktail, Roche, Basel, Switzerland) and phosphatase inhibitors (PhosSTOP, Roche, Basel, Switzerland). Concentration of protein was determined using Lowry assays (Bio-Rad, Hercules, Calif.), and equal amounts of whole cell protein lysate were loaded in each lane and resolved using 4-12% gradient Bis-Tris gel (Invitrogen, CA). Proteins were transferred to 0.2 μm nitrocellulose membranes (Invitrogen, CA). Membranes were incubated overnight at 4° C. with primary antibodies after blocking, followed by incubation with appropriate horseradish peroxidase (HRP) conjugated secondary antibody at room temperature for 1 hour. ECL-Plus was used to detect the activity of peroxidase according to the manufacturer's protocol (Amersham Pharmacia, Uppsala, Sweden). Antibodies raised against phospho-p44/42 MAPK (Erk1/2) (Thr202/Tyr204), pAKT(5473), phospho-p70 S6K* and total ERK, AKT antibodies were purchased from Cell Signaling Technology (Beverly, Mass., USA), and anti-β actin (conjugated with HRP) was purchased from Abcam (Cambridge, Mass., USA). Secondary HRP antibodies were purchased from Jackson ImmunoResearch (St. Louis, Mo., USA).

A549 lung tumor cells = test: Cell viability, AlamarBlue assay; assay type: cell-based, human; settings: dose dependence
D54 glioma cells = test: Cell viability, AlamarBlue assay; assay type: cell-based, human; settings: dose dependence
ERK1/2 phosphorylation = test: In vivo MEK1 inhibition in flank D54 and A549 tumor bearing mice (Western blot); settings: for phosphorylation of ERK1/2 (MEK1 activity) in excised tumor tissue: D54 and A549 tumors, compound 14: 375 mg/kg oral gavage, 2 h
Description: Four athymic nude Foxn1nu mice were used to evaluate oncogenic target modulation activity in vivo.
In Vivo Evaluation of Inhibitor Efficacy.
Each injectate contained a total volume of 200 μL of cell suspension in 50% RPMI medium mixed with 50% BD Matrigel basement membrane matrix (Becton, Dickinson and Company, East Rutherford, N.J.). […] Tumor tissues were collected from both vehicle and drug-treated groups and subjected to Western blot analysis as previously described.

Akt phosphorylation = test: In vivo PI3K inhibition in flank D54 and A549 tumor bearing mice (Western blot); settings: for phosphorylation of Akt (PI3K activity) in excised tumor tissue: D54 and A549 tumors, compound 14: 375 mg/kg oral gavage, 2 h
PI3Kγ [8] = target: T3, PI3Kγ; settings: second value in parentheses, unexplained; cited from earlier work
MEK1 = target: T5, MEK1 (Homo sapiens, UniProt Q02750); test: In vitro MEK1 inhibition assay (Kinase-Glo luminescent kinase assay); assay type: biochemical; settings: average of three experiments each conducted in duplicate
T5 construct: purchased Sigma-Aldrich
Description: In Vitro MEK1 Inhibition Assays.
In vitro MEK1 inhibition activity of inhibitor analogs were determined using Kinase-Glo luminescent kinase assay kits from Promega (WI, USA) per manufacturer's instructions. […] Briefly, series of compound dilutions were added in 96-well plates, followed by MEK1, Erk2, and ATP solutions. Kinase reactions were run at 30° C. for 30 minutes. Equal volumes of Kinase-Glo solution were then added, and reactions were incubated at room temperature for a further 30 minutes. Bioluminescence signals were acquired with an Envision multilabel reader from Perkin Elmer. Assays were conducted in triplicate with various inhibitor concentrations each run in duplicate. IC50 data were calculated using GraphPad Prism software (version 5.0, La Jolla, Calif.).

PI3K = PI3K (Homo sapiens, UniProt P42336); test: In vitro PI3K inhibition assay (Adapta TR-FRET); assay type: biochemical; settings: average of three experiments each conducted in duplicate
Description: In Vitro PI3K Inhibition Assays.
Quantitation of PI3K lipid kinase activity was carried out by Life Technologies (Madison, Wis.) with purified enzyme using the fluorescence-based Adapta TR-FRET assay protocol. Assays were conducted in triplicate with various inhibitor concentrations (0.1 nM to 10 μM).

[9] = test system: intracerebral D54 glioma tumors; test: Survival of mice bearing intracerebral D54 tumors; assay type: in vivo; settings: intracerebral D54, 400 mg/kg oral gavage, vs vehicle control; listed as ST-162
Description: (§2) In preliminary studies, several mouse models were tested for therapeutic efficacy using oral administration of ST-162. Athymic nude Foxn1 nu mice were used to evaluate oncogenic target modulation activity in vivo. Mice bearing intracerebral D54 tumors, subcutaneous colon tumors (CT26) and subcutaneous melanoma (A375 and A2058) tumors were treated with either vehicle control or 400 mg/kg of compound ST-162 by oral gavage for 14-30+ days.

[10] = test system: melanoma tumors A2058 and A357; test: Tumor growth of subcutaneous melanoma tumors; assay type: in vivo, mice; settings: 400 mg/kg oral gavage, 14 days, vs vehicle, listed as ST-162, 400 mg/kg
Description: as §2
In FIG. 9, compound ST-162 was administered for 14 days beginning when subcutaneous melanoma tumors A2058 and A357 were measurable by caliper and MRI and tumor volumes were measured over time and compared to vehicle controls.

colon tumors CT-26 = test: Tumor growth of subcutaneous colon tumors; assay type: in vivo, mice; settings: for tumor growth: subcutaneous CT26, 400 mg/kg oral gavage, 14 days, vs vehicle
Description: as §2
In FIG. 10, compound ST-162 was administered for 14 days beginning when subcutaneous colon tumors CT-26 were measurable by caliper and MRI and tumor volumes were measured over time and compared to vehicle controls.
In FIG. 11, ST-162 was administered for 14 days beginning when subcutaneous colon tumors CT-26 were measurable by caliper and MRI and tumor volumes were measured over time and compared to vehicle controls. At day 14, two tumors were removed and compared for size and weight.

[11] = mean ± SEM, read-out: PI3K Subtype Inhibition Activity PI3Kα
[12] = mean ± SEM, read-out: PI3K Subtype Inhibition Activity PI3Kβ
[13] = read-out: PI3K Subtype Enzyme Inhibition Data IC50 PI3Kβ
[14] = mean ± SEM, read-out: PI3K Subtype Inhibition Activity PI3Kγ
[15] = read-out: PI3K Subtype Enzyme Inhibition Data IC50 PI3Kγ
[16] = oral administration, 2 h postadministration, Western blot

T2 sequence (P42338 whole entry): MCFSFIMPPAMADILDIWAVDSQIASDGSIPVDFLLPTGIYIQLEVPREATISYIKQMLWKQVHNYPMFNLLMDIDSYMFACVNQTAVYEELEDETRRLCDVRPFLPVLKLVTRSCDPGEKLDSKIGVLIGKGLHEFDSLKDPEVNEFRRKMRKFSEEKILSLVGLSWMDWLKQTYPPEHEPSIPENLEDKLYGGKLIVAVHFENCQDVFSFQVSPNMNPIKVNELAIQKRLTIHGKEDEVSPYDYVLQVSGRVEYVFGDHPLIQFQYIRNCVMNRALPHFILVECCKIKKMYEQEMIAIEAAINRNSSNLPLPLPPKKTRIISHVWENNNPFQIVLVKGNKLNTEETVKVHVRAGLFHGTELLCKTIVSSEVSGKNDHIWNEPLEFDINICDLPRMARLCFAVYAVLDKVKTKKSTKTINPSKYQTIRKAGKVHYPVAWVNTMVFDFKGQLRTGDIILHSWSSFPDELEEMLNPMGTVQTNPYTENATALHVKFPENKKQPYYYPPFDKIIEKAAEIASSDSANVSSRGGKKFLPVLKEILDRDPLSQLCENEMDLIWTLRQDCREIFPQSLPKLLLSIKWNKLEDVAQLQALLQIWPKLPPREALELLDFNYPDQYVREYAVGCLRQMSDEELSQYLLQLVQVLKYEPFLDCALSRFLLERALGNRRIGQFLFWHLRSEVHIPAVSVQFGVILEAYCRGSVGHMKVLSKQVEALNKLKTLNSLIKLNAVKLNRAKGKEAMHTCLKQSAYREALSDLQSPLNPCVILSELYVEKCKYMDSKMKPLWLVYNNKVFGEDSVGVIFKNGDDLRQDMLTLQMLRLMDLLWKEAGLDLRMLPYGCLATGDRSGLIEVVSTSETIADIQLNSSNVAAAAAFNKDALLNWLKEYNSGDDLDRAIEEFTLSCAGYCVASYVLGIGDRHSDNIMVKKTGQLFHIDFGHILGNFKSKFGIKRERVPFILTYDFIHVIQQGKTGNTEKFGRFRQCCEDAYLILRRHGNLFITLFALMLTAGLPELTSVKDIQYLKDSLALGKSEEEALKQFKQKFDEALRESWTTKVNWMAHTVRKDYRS
T2 sequence (P27986 whole entry partner): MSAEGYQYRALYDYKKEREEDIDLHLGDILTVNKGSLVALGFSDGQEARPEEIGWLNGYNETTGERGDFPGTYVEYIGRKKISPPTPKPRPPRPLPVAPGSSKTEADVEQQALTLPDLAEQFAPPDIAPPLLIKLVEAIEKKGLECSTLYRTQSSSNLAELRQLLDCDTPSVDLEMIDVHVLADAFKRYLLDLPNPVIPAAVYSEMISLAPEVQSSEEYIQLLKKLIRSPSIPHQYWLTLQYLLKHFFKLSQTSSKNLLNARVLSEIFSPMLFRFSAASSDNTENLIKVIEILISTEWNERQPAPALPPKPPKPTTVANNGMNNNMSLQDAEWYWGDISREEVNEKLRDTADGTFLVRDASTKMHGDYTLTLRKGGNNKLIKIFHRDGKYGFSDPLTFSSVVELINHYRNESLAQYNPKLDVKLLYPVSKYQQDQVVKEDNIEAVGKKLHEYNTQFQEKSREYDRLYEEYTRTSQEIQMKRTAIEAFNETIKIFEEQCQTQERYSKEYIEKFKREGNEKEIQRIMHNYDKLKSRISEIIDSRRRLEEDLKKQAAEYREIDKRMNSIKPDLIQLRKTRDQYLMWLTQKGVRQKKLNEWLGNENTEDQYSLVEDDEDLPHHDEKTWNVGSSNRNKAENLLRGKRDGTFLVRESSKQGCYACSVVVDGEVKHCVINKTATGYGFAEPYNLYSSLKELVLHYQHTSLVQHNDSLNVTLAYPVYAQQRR
T3 sequence (P48736 whole entry): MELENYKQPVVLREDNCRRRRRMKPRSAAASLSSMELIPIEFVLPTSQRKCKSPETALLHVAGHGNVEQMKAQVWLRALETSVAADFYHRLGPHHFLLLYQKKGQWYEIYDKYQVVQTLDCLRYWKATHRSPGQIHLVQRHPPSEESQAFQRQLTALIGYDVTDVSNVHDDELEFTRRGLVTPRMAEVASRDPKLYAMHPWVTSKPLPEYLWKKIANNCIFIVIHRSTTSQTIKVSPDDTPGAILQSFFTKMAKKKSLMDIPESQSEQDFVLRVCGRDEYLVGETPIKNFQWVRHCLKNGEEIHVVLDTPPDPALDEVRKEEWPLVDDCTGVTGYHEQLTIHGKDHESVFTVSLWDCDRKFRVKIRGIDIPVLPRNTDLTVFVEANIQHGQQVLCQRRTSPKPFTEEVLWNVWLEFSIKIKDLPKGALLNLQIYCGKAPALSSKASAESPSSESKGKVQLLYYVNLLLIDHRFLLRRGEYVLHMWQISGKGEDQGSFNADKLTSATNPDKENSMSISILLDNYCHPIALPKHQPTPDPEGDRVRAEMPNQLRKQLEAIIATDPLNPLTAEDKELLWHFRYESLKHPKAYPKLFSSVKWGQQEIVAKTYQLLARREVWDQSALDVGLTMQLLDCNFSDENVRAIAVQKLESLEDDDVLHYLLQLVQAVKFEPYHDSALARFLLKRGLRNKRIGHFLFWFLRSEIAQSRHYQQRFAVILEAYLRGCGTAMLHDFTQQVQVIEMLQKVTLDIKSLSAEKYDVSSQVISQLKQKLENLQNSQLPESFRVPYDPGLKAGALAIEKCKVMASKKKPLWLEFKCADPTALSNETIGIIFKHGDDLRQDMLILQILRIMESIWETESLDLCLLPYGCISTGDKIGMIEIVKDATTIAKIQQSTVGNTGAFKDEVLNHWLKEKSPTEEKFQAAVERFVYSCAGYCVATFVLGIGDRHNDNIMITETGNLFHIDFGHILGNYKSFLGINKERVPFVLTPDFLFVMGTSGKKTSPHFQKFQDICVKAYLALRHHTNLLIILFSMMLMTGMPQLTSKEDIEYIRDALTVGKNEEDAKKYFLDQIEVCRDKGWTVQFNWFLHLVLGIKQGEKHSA
T1 sequence (P42336 whole entry): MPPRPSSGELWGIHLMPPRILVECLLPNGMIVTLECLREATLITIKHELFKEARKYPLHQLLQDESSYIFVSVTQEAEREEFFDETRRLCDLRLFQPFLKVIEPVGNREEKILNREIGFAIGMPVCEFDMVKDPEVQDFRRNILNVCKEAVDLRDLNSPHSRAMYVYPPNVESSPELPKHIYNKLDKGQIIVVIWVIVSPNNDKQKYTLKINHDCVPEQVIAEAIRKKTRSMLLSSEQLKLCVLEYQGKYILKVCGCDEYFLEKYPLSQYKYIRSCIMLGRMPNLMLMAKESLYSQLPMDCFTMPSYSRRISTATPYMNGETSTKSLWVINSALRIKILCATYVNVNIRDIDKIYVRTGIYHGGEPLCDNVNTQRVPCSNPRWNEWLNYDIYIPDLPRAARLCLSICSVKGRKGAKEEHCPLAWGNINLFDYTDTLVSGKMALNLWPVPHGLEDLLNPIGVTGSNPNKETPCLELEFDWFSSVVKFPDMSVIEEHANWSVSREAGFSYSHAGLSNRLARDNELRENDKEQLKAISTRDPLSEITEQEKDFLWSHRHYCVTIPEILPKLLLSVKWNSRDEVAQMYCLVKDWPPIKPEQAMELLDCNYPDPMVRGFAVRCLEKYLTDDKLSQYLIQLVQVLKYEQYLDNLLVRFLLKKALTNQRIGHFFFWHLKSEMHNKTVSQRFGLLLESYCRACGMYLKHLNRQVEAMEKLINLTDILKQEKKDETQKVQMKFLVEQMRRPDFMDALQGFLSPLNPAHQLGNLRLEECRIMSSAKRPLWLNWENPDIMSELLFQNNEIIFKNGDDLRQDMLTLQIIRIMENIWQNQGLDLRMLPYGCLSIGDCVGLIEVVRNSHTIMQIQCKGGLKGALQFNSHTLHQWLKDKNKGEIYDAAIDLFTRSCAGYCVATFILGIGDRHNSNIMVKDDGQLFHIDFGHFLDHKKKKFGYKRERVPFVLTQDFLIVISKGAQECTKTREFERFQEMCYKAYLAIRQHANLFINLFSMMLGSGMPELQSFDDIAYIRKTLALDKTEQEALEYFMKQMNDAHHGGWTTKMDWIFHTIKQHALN
T1 sequence (P27986 whole entry partner): as the sequence (P27986 whole entry partner) above
T4 sequence (O00329 whole entry): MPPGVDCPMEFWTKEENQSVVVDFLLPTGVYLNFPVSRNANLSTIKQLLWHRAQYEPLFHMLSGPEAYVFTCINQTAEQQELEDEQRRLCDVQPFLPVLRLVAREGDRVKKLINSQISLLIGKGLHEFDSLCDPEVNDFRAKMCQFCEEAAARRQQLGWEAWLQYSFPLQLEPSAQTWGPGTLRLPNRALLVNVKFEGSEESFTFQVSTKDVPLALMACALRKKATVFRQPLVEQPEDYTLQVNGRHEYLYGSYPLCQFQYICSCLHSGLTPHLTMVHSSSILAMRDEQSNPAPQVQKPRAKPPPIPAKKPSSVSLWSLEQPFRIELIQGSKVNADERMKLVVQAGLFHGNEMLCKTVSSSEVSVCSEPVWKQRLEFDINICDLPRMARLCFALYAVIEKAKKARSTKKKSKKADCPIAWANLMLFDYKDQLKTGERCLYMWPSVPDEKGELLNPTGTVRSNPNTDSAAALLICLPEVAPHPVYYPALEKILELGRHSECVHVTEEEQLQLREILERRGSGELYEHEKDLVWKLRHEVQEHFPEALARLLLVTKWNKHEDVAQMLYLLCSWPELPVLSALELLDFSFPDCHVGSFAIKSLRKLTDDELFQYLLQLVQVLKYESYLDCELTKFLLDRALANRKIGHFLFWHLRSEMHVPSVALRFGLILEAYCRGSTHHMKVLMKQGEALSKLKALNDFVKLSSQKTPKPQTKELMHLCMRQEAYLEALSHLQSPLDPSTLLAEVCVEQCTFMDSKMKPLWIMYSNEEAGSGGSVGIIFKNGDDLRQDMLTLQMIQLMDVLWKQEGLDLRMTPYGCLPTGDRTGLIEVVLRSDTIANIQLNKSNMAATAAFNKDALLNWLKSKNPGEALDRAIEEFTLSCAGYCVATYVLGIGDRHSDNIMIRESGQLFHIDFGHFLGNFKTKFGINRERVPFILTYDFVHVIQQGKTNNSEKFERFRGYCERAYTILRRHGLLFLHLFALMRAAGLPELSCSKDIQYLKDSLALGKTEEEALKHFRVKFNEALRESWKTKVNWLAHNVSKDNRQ
T4 sequence (P27986 whole entry partner): as the sequence (P27986 whole entry partner) above

SMILES | IC50 (PI3Kα; [11]) [nM] | IC50 (PI3Kβ; [12]) [nM] | IC50 (PI3Kβ; [13]) [nM] | IC50 (PI3Kγ [1]; [14]) [nM] | IC50 (PI3Kγ [1]; [15]) [nM] | Concurrent inhibition in tumor cell lines [2] | MEK1 and PI3K activities in tumor relative to vehicle control (MEK1 and PI3K activities [3]) | MEK1 and PI3K activities in tumor relative to vehicle control (MEK1 and PI3K activities [4]) | MEK1 and PI3K activities in tumor relative to vehicle control (MEK1 and PI3K activities [5]) | MEK inhibition in cells [6] | PI3K inhibition in cells [7] | PI3K activity indicated by level of pAKT [7] | cell viability (A549 lung tumor cells) | cell viability (D54 glioma cells) | other results
O=C(NOCCOCCOCCOCCC(=O)N1CCN(c2nc(N3CCOCC3)nc(-n3c(C(F)F)nc4ccccc43)n2)CC1)c1ccc(F)c(F)c1Nc1ccc(I)cc1F [ST-168] | 69.2 ± 2.2 | 1480 ± 377 | 1480 ± 377 | 2290 ± 241 | 2290 ± 241 | Concurrent inhibition was demonstrated | successfully modulated both MEK1 and PI3K activities | successfully modulated both MEK1 and PI3K activities | successfully modulated MEK1 and PI3K activities | – | – | – | – | – | IC50 (PI3Kα; read-out: PI3K Subtype Enzyme Inhibition Data IC50 PI3Kα): 69.2 ± 2.2 nM; IC50 (PI3Kδ; mean ± SEM, read-out: PI3K Subtype Inhibition Activity PI3Kδ): 41.7 ± 2.1 nM; IC50 (PI3Kδ; read-out: PI3K Subtype Enzyme Inhibition Data IC50 PI3Kδ): 41.7 ± 2.1 nM; inhibition of mTOR/MEK1/PI3K in tumor tissue (mTOR/MEK1/PI3K): combined inhibition of mTOR/MEK1/PI3K was achieved; reduction in tumor size over vehicle control (A375 melanoma tumor; A375, 400 mg/kg daily oral, 35 days post-treatment initiation): > 6 fold; lifespan (A375 melanoma tumor; A375 tumor bearing mice, 400 mg/kg daily oral): significantly increased lifespan; side effects (such as loss in body weight) (A375 melanoma tumor; long term dosage, 40 daily oral doses, 400 mg/kg): no detectable side effects
O=C(NOCCNCCCCCC(=O)N1CCN(c2nc(N3CCOCC3)nc(-n3c(C(F)F)nc4ccccc43)n2)CC1)c1ccc(F)c(F)c1Nc1ccc(I)cc1F [Compound 9, N-(2-((6-(4-(4-(2-(Difluoromethyl)-1H-benzo[d]imidazol-1-yl)-6-morpholino-1,3,5-triazin-2-yl)piperazin-1-yl)-6-oxohexyl)amino)ethoxy)-3,4-difluoro-2-((2-fluoro-4-iodophenyl)amino)benzamide] | – | – | – | – | – | – | – | – | – | most pronounced | most pronounced | high potency in inhibiting PI3K activity | as effective as the combination of ZSTK474 and PD0325901 | as effective as the combination of ZSTK474 and PD0325901 | phosphorylation of ERK1/2 (MEK1 activity) in excised tumor tissue (ERK1/2 phosphorylation): modulation of ERK1/2 and pAkt levels was also achieved; phosphorylation of Akt (PI3K activity) in excised tumor tissue (Akt phosphorylation): modulation of ERK1/2 and pAkt levels was also achieved
COc1ncc(-c2ccc3nccc(-c4ccnnc4)c3c2)cc1NS(=O)(=O)c1ccc(F)cc1F [GSK 458, reference compound] | – | – | – | – | – | – | – | – | – | – | – | – | – | – | IC50 (PI3Kγ [1]; ST-182 and intermediates, read-out: PI3Kγ IC50): 0.83 ± 0.1 nM; IC50 (PI3Kγ [8]): 0.06 nM
O=C(NOCCOCCOCCOCCN1CCN(c2nc(N3CCOCC3)nc(-n3c(C(F)F)nc4ccccc43)n2)CC1)c1ccc(F)c(F)c1Nc1ccc(I)cc1F [Compound 14] | 467 ± 9 | 4070 ± 290 | 4070 ± 290 | 5800 ± 511 | 5800 ± 511 | Concurrent inhibition was demonstrated | successfully modulated both MEK1 and PI3K activities | successfully modulated both MEK1 and PI3K activities | successfully modulated MEK1 and PI3K activities | inhibition was demonstrated; also recorded: most pronounced | inhibition was demonstrated; also recorded: most pronounced | high potency in inhibiting PI3K activity | as effective as the combination of ZSTK474 and PD0325901 | as effective as the combination of ZSTK474 and PD0325901 | IC50 (MEK1): 0.15 nM; IC50 (PI3K): 191 to 341 nM; phosphorylation of ERK1/2 (MEK1 activity) in excised tumor tissue (ERK1/2 phosphorylation; 375 mg/kg): inhibited phosphorylation; also recorded: significant inhibition; inhibition of tumor ERK1/2 phosphorylation (ERK1/2 phosphorylation; [16]): 95%; phosphorylation of Akt (PI3K activity) in excised tumor tissue (Akt phosphorylation; 375 mg/kg): inhibited phosphorylation; also recorded: significant inhibition; inhibition of tumor Akt phosphorylation (Akt phosphorylation; [16]): 67%; overall survival [9]: improved animal survival; also recorded: significant improvement (P=0.0054); tumor growth [10]: significant tumor growth delays; also recorded: significant reduction of tumor growth; size of excised tumors (colon tumors CT-26; CT-26, day 14, vs vehicle control tumors): smaller in volume; tumor growth (colon tumors CT-26; listed as MV4-162): significant reduction of tumor growth; tumor growth (colon tumors CT-26; listed as ST-162): significant tumor growth delays
